What was measured:
[1] = test system: multiple myeloma cell lines (t(4;14) and non-t(4;14)); test: 14 day LTP assay in multiple myeloma cells; format: cell-based, human; settings: FIG. 1 scatter graph
KMS-11 tumor = test: Anti-tumor activity in human myeloma KMS-11 tumor-bearing NOD SCID mice (subcutaneous xenograft); format: in vivo
From the text: Evaluation of the Anti-Tumor Activity of Cpd. […] Based on the tumor volume and body weight, mice were assigned to respective groups such that the average starting tumor size and body weight was the same for each treatment group. […] The tumor cells were routinely subcultured before confluence, not to exceed 4-5 passages. The cells growing in an exponential growth phase were harvested and counted for tumor inoculation. […] The treatment was started when the mean tumor size reached 118 mm^3. Mice were then assigned to groups such that the mean tumor volume was the same for each treatment group and time point. […] Tumor Measurements The measurement of tumor size was conducted twice weekly with a caliper and the tumor volume (mm3) is estimated using the formula: TV=a×b×b/2, where “a” and “b” are long and short diameters of a tumor, respectively. The TVs are used for calculation of the tumor growth inhibition and tumor growth delay. […] The “[…]” and “TVinitial” are the mean tumor volumes on the final day and initial day of dosing. After take down 5 mice of G2 G5 post the final dosing, the remaining mice were maintained for monitoring tumor outgrowth twice weekly. […] Animals showing obvious signs of severe distress and/or pain were humanely sacrificed by carbon dioxide followed by cervical dislocation to ensure death. Samples Collection Tumor samples and plasma were collect at the indicated day. Data Acquisition and Statistical Analysis Data Acquisition: Protocol-required measurements and observations were recorded manually on appropriate forms, or directly on a computerized database. Statistical Analysis: All statistical tests were conducted, and the level of significance was set at 5% or P<0.05. The group means, standard deviation were calculated for all measurement parameters as study designed. Two-way RM ANOVA followed by Tukeys post hoc comparisons of the means. The therapeutic effects of compound as a single agent in the KMS-11 subcutaneous xenograft model were evaluated.

KMS-34 cells = test: 14 day KMS-34 long term proliferation (LTP) assay; settings: KMS-34, t(4;14) multiple myeloma cell line; 14-day assay; FIG. 2
Method: 14 Day KMS-34 Long Term Proliferation (LTP) Assay
Incubate plates for 96 hrs.
The final concentration is 1 μm.
To calculate growth for days 4, 7, 11, and 14:
1. Calculate the split factor for day 4 to 7, day 7 to 11, and day 11-14 The split factor is the viable cells/mL on Day X (either 4, 7, or 11) divided by the density the cells are being split back to.
2. For growth of cells from day 4 to 7, multiply the day 7 viable cells/mL density by the split factor from day 4.
4. For growth of cells from Day 11 to 14, multiply the Day 14 viable cells/mL density by the days 4, 7, and 11 split factors.
5. Plot growth on semi-log chart (viable cells/mL on Y axis, in log, and days on X axis).
From 5 mM to 0.25 μm. […] Mix well by pipetting up and down.

[2] = G2, 31.25 mg/kg, p.o., BID × 28 days, PG-Day 25

CC(=O)N1CCN([C@H]2CCC[C@@H](NC(=O)c3cc4c(F)ccc(C)c4[nH]3)C2)CC1 [Cpd. No. 15, N-((1R,3S)-3-(4-acetylpiperazin-1-yl)cyclohexyl)-4-fluoro-7-methyl-1H-indole-2-carboxamide]
anti-proliferative effects in t(4;14) and non-t(4;14) multiple myeloma cell lines [1]: selective anti-proliferative effects | Tumor volume (Mean ± SEM) (KMS-11 tumor; G2, 31.25 mg/kg p.o. BID 28 days, PG-D1 (D 7)): 119 ± 6 mm3 | Tumor volume (Mean ± SEM) (KMS-11 tumor; G2, 31.25 mg/kg p.o. BID 28 days, PG-D4 (D 10)): 225 ± 21 mm3 | Tumor volume (Mean ± SEM) (KMS-11 tumor; G2, 31.25 mg/kg p.o. BID 28 days, PG-D7 (D 13)): 271 ± 19 mm3 | Tumor volume (Mean ± SEM) (KMS-11 tumor; G2, 31.25 mg/kg p.o. BID 28 days, PG-D11 (D 17)): 408 ± 46 mm3 | Tumor volume (Mean ± SEM) (KMS-11 tumor; G2, 31.25 mg/kg p.o. BID 28 days, PG-D14 (D 20)): 478 ± 54 mm3 | Tumor volume (Mean ± SEM) (KMS-11 tumor; G2, 31.25 mg/kg p.o. BID 28 days, PG-D18 (D 24)): 609 ± 71 mm3 | Tumor volume (Mean ± SEM) (KMS-11 tumor; G2, 31.25 mg/kg p.o. BID 28 days, PG-D21 (D 27)): 686 ± 80 mm3 | Tumor volume (Mean ± SEM) (KMS-11 tumor; G2, 31.25 mg/kg p.o. BID 28 days, PG-D25 (D 31)): 763 ± 97 mm3 | Tumor volume post the final dosing (Mean ± SEM) (KMS-11 tumor; G2, 31.25 mg/kg p.o. BID 28 days, PG-D28 (D 34)): 882 ± 131 mm3 | Tumor volume post the final dosing (Mean ± SEM) (KMS-11 tumor; G2, 31.25 mg/kg p.o. BID 28 days, PG-D32 (D 38)): 1123 ± 149 mm3 | Tumor volume post the final dosing (Mean ± SEM) (KMS-11 tumor; G2, 31.25 mg/kg p.o. BID 28 days, PG-D35 (D 41)): 1499 ± 196 mm3 | Tumor volume post the final dosing (Mean ± SEM) (KMS-11 tumor; G2, 31.25 mg/kg p.o. BID 28 days, PG-D39 (D 45)): 1747 ± 243 mm3 | Tumor Size at PG-Day 25 (Mean ± SEM) (KMS-11 tumor; G2, 31.25 mg/kg, p.o., BID × 28 days): 763 ± 97 mm3 | TGI (KMS-11 tumor; [2]): 74% | ΔT/ΔC (KMS-11 tumor; [2]): 26% | Tumor volume (Mean ± SEM) (KMS-11 tumor; G3, 62.5 mg/kg p.o. BID 28 days, PG-D1 (D 7)): 117 ± 6 mm3 | Tumor volume (Mean ± SEM) (KMS-11 tumor; G3, 62.5 mg/kg p.o. BID 28 days, PG-D4 (D 10)): 178 ± 11 mm3 | Tumor volume (Mean ± SEM) (KMS-11 tumor; G3, 62.5 mg/kg p.o. BID 28 days, PG-D7 (D 13)): 216 ± 11 mm3 | Tumor volume (Mean ± SEM) (KMS-11 tumor; G3, 62.5 mg/kg p.o. BID 28 days, PG-D11 (D 17)): 231 ± 16 mm3 | Tumor volume (Mean ± SEM) (KMS-11 tumor; G3, 62.5 mg/kg p.o. BID 28 days, PG-D14 (D 20)): 184 ± 17 mm3 | Tumor volume (Mean ± SEM) (KMS-11 tumor; G3, 62.5 mg/kg p.o. BID 28 days, PG-D18 (D 24)): 176 ± 22 mm3 | Tumor volume (Mean ± SEM) (KMS-11 tumor; G3, 62.5 mg/kg p.o. BID 28 days, PG-D21 (D 27)): 129 ± 25 mm3 | Tumor volume (Mean ± SEM) (KMS-11 tumor; G3, 62.5 mg/kg p.o. BID 28 days, PG-D25 (D 31)): 115 ± 30 mm3 | Tumor volume post the final dosing (Mean ± SEM) (KMS-11 tumor; G3, 62.5 mg/kg p.o. BID 28 days, PG-D28 (D 34)): 117 ± 36 mm3 | Tumor volume post the final dosing (Mean ± SEM) (KMS-11 tumor; G3, 62.5 mg/kg p.o. BID 28 days, PG-D32 (D 38)): 65 ± 23 mm3 | Tumor volume post the final dosing (Mean ± SEM) (KMS-11 tumor; G3, 62.5 mg/kg p.o. BID 28 days, PG-D35 (D 41)): 150 ± 60 mm3 | Tumor volume post the final dosing (Mean ± SEM) (KMS-11 tumor; G3, 62.5 mg/kg p.o. BID 28 days, PG-D39 (D 45)): 309 ± 108 mm3 | Tumor Size at PG-Day 25 (Mean ± SEM) (KMS-11 tumor; G3, 62.5 mg/kg, p.o., BID × 28 days): 115 ± 30 mm3 | ΔT/ΔC (KMS-11 tumor; G3, 62.5 mg/kg, p.o., BID × 28 days, PG-Day 25): 0% | Tumor volume (Mean ± SEM) (KMS-11 tumor; G4, 125 mg/kg p.o. BID 18 days then BID(3D− 4D+) 7 days, PG-D1 (D 7)): 117 ± 6 mm3 | Tumor volume (Mean ± SEM) (KMS-11 tumor; G4, 125 mg/kg p.o. BID 18 days then BID(3D− 4D+) 7 days, PG-D4 (D 10)): 191 ± 11 mm3 | Tumor volume (Mean ± SEM) (KMS-11 tumor; G4, 125 mg/kg p.o. BID 18 days then BID(3D− 4D+) 7 days, PG-D7 (D 13)): 219 ± 9 mm3 | Tumor volume (Mean ± SEM) (KMS-11 tumor; G4, 125 mg/kg p.o. BID 18 days then BID(3D− 4D+) 7 days, PG-D11 (D 17)): 196 ± 11 mm3 | Tumor volume (Mean ± SEM) (KMS-11 tumor; G4, 125 mg/kg p.o. BID 18 days then BID(3D− 4D+) 7 days, PG-D14 (D 20)): 119 ± 10 mm3 | Tumor volume (Mean ± SEM) (KMS-11 tumor; G4, 125 mg/kg p.o. BID 18 days then BID(3D− 4D+) 7 days, PG-D18 (D 24)): 99 ± 16 mm3 | Tumor volume (Mean ± SEM) (KMS-11 tumor; G4, 125 mg/kg p.o. BID 18 days then BID(3D− 4D+) 7 days, PG-D21 (D 27)): 85 ± 20 mm3 | Tumor volume (Mean ± SEM) (KMS-11 tumor; G4, 125 mg/kg p.o. BID 18 days then BID(3D− 4D+) 7 days, PG-D25 (D 31)): 131 ± 39 mm3 | Tumor volume post the final dosing (Mean ± SEM) (KMS-11 tumor; G4, 125 mg/kg p.o. BID 18 days then BID(3D− 4D+) 7 days, PG-D28 (D 34)): 99 ± 20 mm3 | Tumor volume post the final dosing (Mean ± SEM) (KMS-11 tumor; G4, 125 mg/kg p.o. BID 18 days then BID(3D− 4D+) 7 days, PG-D32 (D 38)): 239 ± 68 mm3 | Tumor volume post the final dosing (Mean ± SEM) (KMS-11 tumor; G4, 125 mg/kg p.o. BID 18 days then BID(3D− 4D+) 7 days, PG-D35 (D 41)): 421 ± 108 mm3 | Tumor volume post the final dosing (Mean ± SEM) (KMS-11 tumor; G4, 125 mg/kg p.o. BID 18 days then BID(3D− 4D+) 7 days, PG-D39 (D 45)): 757 ± 215 mm3 | Tumor Size at PG-Day 25 (Mean ± SEM) (KMS-11 tumor; G4, 125 mg/kg, p.o., BID × 18 days, BID(3D− 4D+) × 7 days): 131 ± 39 mm3 | ΔT/ΔC (KMS-11 tumor; G4, 125 mg/kg, p.o., BID × 18 days, BID(3D− 4D+) × 7 days, PG-Day 25): 1% | Tumor volume (Mean ± SEM) (KMS-11 tumor; G5, 175 mg/kg p.o. BID 11 days then BID(3D− 4D+) 14 days, PG-D1 (D 7)): 119 ± 6 mm3 | Tumor volume (Mean ± SEM) (KMS-11 tumor; G5, 175 mg/kg p.o. BID 11 days then BID(3D− 4D+) 14 days, PG-D4 (D 10)): 192 ± 13 mm3 | Tumor volume (Mean ± SEM) (KMS-11 tumor; G5, 175 mg/kg p.o. BID 11 days then BID(3D− 4D+) 14 days, PG-D7 (D 13)): 221 ± 17 mm3 | Tumor volume (Mean ± SEM) (KMS-11 tumor; G5, 175 mg/kg p.o. BID 11 days then BID(3D− 4D+) 14 days, PG-D11 (D 17)): 199 ± 24 mm3 | Tumor volume (Mean ± SEM) (KMS-11 tumor; G5, 175 mg/kg p.o. BID 11 days then BID(3D− 4D+) 14 days, PG-D14 (D 20)): 167 ± 27 mm3 | Tumor volume (Mean ± SEM) (KMS-11 tumor; G5, 175 mg/kg p.o. BID 11 days then BID(3D− 4D+) 14 days, PG-D18 (D 24)): 189 ± 32 mm3 | Tumor volume (Mean ± SEM) (KMS-11 tumor; G5, 175 mg/kg p.o. BID 11 days then BID(3D− 4D+) 14 days, PG-D21 (D 27)): 214 ± 45 mm3 | Tumor volume (Mean ± SEM) (KMS-11 tumor; G5, 175 mg/kg p.o. BID 11 days then BID(3D− 4D+) 14 days, PG-D25 (D 31)): 225 ± 45 mm3 | Tumor volume post the final dosing (Mean ± SEM) (KMS-11 tumor; G5, 175 mg/kg p.o. BID 11 days then BID(3D− 4D+) 14 days, PG-D28 (D 34)): 269 ± 146 mm3 | Tumor volume post the final dosing (Mean ± SEM) (KMS-11 tumor; G5, 175 mg/kg p.o. BID 11 days then BID(3D− 4D+) 14 days, PG-D32 (D 38)): 589 ± 378 mm3 | Tumor volume post the final dosing (Mean ± SEM) (KMS-11 tumor; G5, 175 mg/kg p.o. BID 11 days then BID(3D− 4D+) 14 days, PG-D35 (D 41)): 732 ± 422 mm3 | Tumor volume post the final dosing (Mean ± SEM) (KMS-11 tumor; G5, 175 mg/kg p.o. BID 11 days then BID(3D− 4D+) 14 days, PG-D39 (D 45)): 1183 ± 686 mm3 | Tumor Size at PG-Day 25 (Mean ± SEM) (KMS-11 tumor; G5, 175 mg/kg, p.o., BID × 18 days, BID(3D− 4D+) × 14 days): 225 ± 45 mm3 | ΔT/ΔC (KMS-11 tumor; G5, 175 mg/kg, p.o., BID × 18 days, BID(3D− 4D+) × 14 days, PG-Day 25): 4% | type of response of KMS-34 cells (KMS-34 cells): cytotoxic response
